Reference: patent publication US11957668B2, “Kinase mutation-associated neurodegenerative disorders” (MEMORIAL SLOAN KETTERING CANCER CENTER, priority 2017, dated 2024)

What was measured:
[1] = test system: YFP+ microglia; assay: Protein-level expression of inflammatory and adhesion markers in YFP+ microglia and spinal cord (flow cytometry, immunostaining, Bioplex); assay type: in vivo, mouse; details: BRAF^VE mice, following PLX4720 treatment
Method: Preparation of cell suspensions, flow cytometry and cell sorting. Pregnant females were killed by exposure to CO2. Embryos were removed from the uterus, washed in 4° C. phosphate-buffered saline (PBS, Invitrogen) and dissected under a Leica M80 microscope. For blood phenotyping of adult mice, mice were anaesthetized and blood was collected by cardiac puncture. Bone marrow was collected by flushing one leg with 5 ml RPMI (Invitrogen). For flow cytometry experiments, organs were incubated in PBS containing 1 mg/ml collagenase D (Roche), 100 U/ml DNase I (Sigma), 2.4 mg/ml of dispase (Invitrogen) and 3% FCS (Invitrogen) at 37° C. for 30 min prior to mechanical disruption. For embryonic tissue incubation time at 37° C. was reduced to 20 min. For cell sorting, tissues were digested for 30 min at RT in PBS containing 2 mg/ml of collagenase D (Roche), 200 U/ml DNase I (Sigma), 4.8 mg/ml of dispase (Invitrogen), 3% FCS (Invitrogen) and 1 uM of flavopiridol (Sigma) followed by mechanical disruption under a 100 um filter. Cell suspensions were centrifuged at 320 g for 7 min, resuspended in FACS buffer (PBS, 0.5% BSA and 2 mm EDTA) containing purified anti-CD16/32 (1:100 dilution) and 5% normal mouse, 5% normal rat and 5% normal rabbit serum and incubated for 15 min at 4° C. […] For FMO (fluorescence minus one), brain cell suspensions from BRAF^WT and BRAF^VE mice were mixed prior to staining. […]

[2] = test system: Csf1r^MeriCreMer; BRAF^V600E; Rosa26^LSL-YFP mice
Method: Mice. […] Genotyping was performed according to protocols described previously for Csf1r^iCre Csf1r^MeriCreMer, CD11^Cre and BRAF^LSL-V600E mice. Cre recombination in Csf1r^MeriCreMer; Rosa26^LSL-YFP; BRAF^LSL-V600E embryos was induced by single injection at E8.5 of 37.5 mg per kg (body weight) of 4-hydroxytamoxifen (OH-TAM, Sigma) into pregnant females. OH-TAM was supplemented with 18.75 mg per kg (body weight) progesterone (Sigma) to counteract the mixed oestrogen agonist effects of tamoxifen, which can result in fetal abortions. Embryonic development was estimated considering the day of vaginal plug formation as 0.5 dpc. […] BRAF^WT and BRAF^VE male and female littermates were assigned randomly into the control or treated group. Scoring of mice was performed blinded and at least weekly by assessing hindlimb reflexes and other behavioral phenotypes such as axial rolling. The investigators were not blinded to allocation during experiments and outcome assessment.
Footprint analysis. Mice were given two trials to run down a runway before the experiment. Mouse forepaws and hindpaws were painted with red and blue ink, respectively. Mice were then allowed to run down a runway lined with white paper. At least four steps from the middle portion of each run were measured for (1) overlap between forepaw and hindpaw placement, (2) stride length, (3) front-base width (the distance between the right and left forelimb strides), and (4) hind-base width (the distance between the right and left hindlimb strides). Mean values were used for graphs and statistical analyses.
As a readout, hind limb clasping reflexes were examined every week and footprint assays were performed as described above before treatment and every 4 weeks during treatment.
To determine the potential effects of BRAF^V600E macrophage clones in adult tissues, a large cohort (n=155) of BRAF^VE mice and littermate controls were analyzed.

Structure (SMILES): CCCS(=O)(=O)Nc1ccc(F)c(C(=O)c2c[nH]c3ncc(Cl)cc23)c1F [PLX4720]
- expression of Dectin-1 (Clec7a), LFA-1 (CD11a), VLA-4 (CD49d), the Pdgf receptor, Il1b, and Il17a at the protein level [1]: decrease
- onset of neurologic disease (cumulative incidence of the ataxic phenotype) ([2]; PLX4720-impregnated chow 417 mg/kg from 3 months of age, preliminary, small group): delays but does not totally prevent the onset of neurologic disease
- disease progression ([2]; ad libitum PLX4720 diet started at one or three months of age): mitigated disease progression in both cases
- BRAF^VE mice alive ([2]; by 9 months of age, PLX4720 diet): 80%
- average clinical score ([2]; by 9 months of age, PLX4720 diet, score scale 1-4): 2
- course of the neurological disease and mortality ([2]; treatment of adult mice with BRAF^V600E mosaicism): slows the course of the neurological disease and reduces its mortality
